pIC50: −log10 of the molar value. Where “and” joins values, the source holds several entries; their conditions need not be identical. Identical values can stand only once. Counter-ions that a name gives are not always drawn. Like-named read-outs stand apart in the source and are kept apart here.
Experiments:
BHK cells = experiment: Cell viability ATP assay, BHK cells; type: cell-based, hamster; conditions: read-out: Cell viability IC50
CHIKV replicon = experiment: microbe, parasite or virus in culture; type: cell-based, Chikungunya virus (CHIKV)
SFV-Rluc [1] = conditions: for pIC50: read-out: SFV IC50
SFV-Rluc [2] = experiment: microbe, parasite or virus in culture; conditions: Semliki Forest virus, BHK, 14 h, read-out: SFV IC50
SFV = experiment: Viral yield analysis using a plaque assay; type: cell-based, Semliki Forest virus (SFV); conditions: BHK cells, MOI 0.01, 50 µM compound, 16 h; untreated control 1.4×10^9 PFU/ml
[3] = Mesocricetus auratus, BHK, 48 h
[4] = ATP assay, 48 h exposure of BHK cells

## CC(=O)c1ccc(O)cc1 [4-Hydroxyacetophenone]
BHK cells; [3]
  pIC50: 3.79
CHIKV replicon
  CHIKV replicon % left: 94.5%
SFV-Rluc [1]
  SFV replication % left (surviving fraction, remaining percentage of SFV replication): 29.4%
  SI (selectivity index): 7.8
SFV-Rluc [2]
  pIC50: 4.68

## CCN(CC)c1ccc2cc(C(=O)c3cccs3)c(=O)oc2c1 [7-Diethylamino-3-thenoylcoumarin]
BHK cells; [4]
  pIC50: 4.41
CHIKV replicon
  CHIKV replicon % left: 36.9%
SFV-Rluc [1]
  SFV replication % left (surviving fraction, remaining percentage of SFV replication): 15.6%
  pIC50: 5.29

## O=c1cc(-c2ccccc2)oc2c1ccc1ccccc12 [Alphanaphtoflavone]
BHK cells; [4]
  pIC50: < 3.70
SFV-Rluc [1]
  pIC50: 4.62

## CN(C)CCC=C1c2ccccc2COc2ccccc21 [Doxepin]
SFV
  SFV yield: 3.6×10^8 PFU/ml

## CC1=CC(=O)c2ccccc2C1=O [Menadione]
BHK cells; [3]
  pIC50: 4.66
SFV-Rluc [1]
  SI (selectivity index): 2.8
SFV-Rluc [2]
  pIC50: 5.11

## CCCOC(=O)c1cc(O)c(O)c(O)c1 [Propyl gallate]
BHK cells; [3]
  pIC50: 3.99
SFV-Rluc [1]
  SI (selectivity index): 5.8
SFV-Rluc [2]
  pIC50: 4.75

## C[C@@H]1O[C@@H](Oc2c(-c3ccc(O)c(O)c3)oc3cc(O)cc(O)c3c2=O)[C@H](O)[C@H](O)[C@H]1O [Quercitrin]
BHK cells; [3]
  pIC50: < 3.70
SFV-Rluc [1]
  SI (selectivity index): >8.4
SFV-Rluc [2]
  pIC50: 4.63

## Cc1nnc(NS(=O)(=O)c2ccc(N)cc2)s1 [Sulfamethylthiadiazole]
CHIKV replicon
  CHIKV replicon % left: 92.1%
SFV-Rluc [1]
  SFV replication % left (surviving fraction, remaining percentage of SFV replication): 89.6%

## Cc1nc(NS(=O)(=O)c2ccc(N)cc2)oc1C [Sulfamoxole]
CHIKV replicon
  CHIKV replicon % left: 80.2%
SFV-Rluc [1]
  SFV replication % left (surviving fraction, remaining percentage of SFV replication): 83.0%

## Nc1ccc(S(N)(=O)=O)cc1 [Sulfanilamide]
CHIKV replicon
  CHIKV replicon % left: 100.5%
SFV-Rluc [1]
  SFV replication % left (surviving fraction, remaining percentage of SFV replication): 64.2%

## NC(=O)NS(=O)(=O)c1ccc(N)cc1.O [Sulfaninyl urea hydrate]
CHIKV replicon
  CHIKV replicon % left: 92.8%
SFV-Rluc [1]
  SFV replication % left (surviving fraction, remaining percentage of SFV replication): 120.2%

## Cc1cnc(NS(=O)(=O)c2ccc(N)cc2)nc1 [Sulfaperine]
CHIKV replicon
  CHIKV replicon % left: 100.8%
SFV-Rluc [1]
  SFV replication % left (surviving fraction, remaining percentage of SFV replication): 127.8%

## Nc1ccc(S(=O)(=O)Nc2ccccn2)cc1 [Sulfapyridine]
CHIKV replicon
  CHIKV replicon % left: 79.9%
SFV-Rluc [1]
  SFV replication % left (surviving fraction, remaining percentage of SFV replication): 95.0%

## Nc1ccc(S(=O)(=O)Nc2nccs2)cc1 [Sulfathiazole]
CHIKV replicon
  CHIKV replicon % left: 78.5%
SFV-Rluc [1]
  SFV replication % left (surviving fraction, remaining percentage of SFV replication): 138.1%

## Cc1noc(NS(=O)(=O)c2ccc(N)cc2)c1C [Sulfisoxazole]
CHIKV replicon
  CHIKV replicon % left: 104.5%
SFV-Rluc [1]
  SFV replication % left (surviving fraction, remaining percentage of SFV replication): 91.4%

## CCS(=O)(=O)C(C)(C)S(=O)(=O)CC [Sulfonmethane]
CHIKV replicon
  CHIKV replicon % left: 102.7%
SFV-Rluc [1]
  SFV replication % left (surviving fraction, remaining percentage of SFV replication): 86.6%

## COc1cc(C(=O)O)cc(OC)c1O [Syringic acid]
CHIKV replicon
  CHIKV replicon % left: 54.4%
SFV-Rluc [1]
  SFV replication % left (surviving fraction, remaining percentage of SFV replication): 61.1%

## CC(C)(C)NCC(O)COc1ccc(NC(=O)NC2CCCCC2)cc1 (stereo not shown) [Talinolol]
CHIKV replicon
  CHIKV replicon % left: 91.8%
SFV-Rluc [1]
  SFV replication % left (surviving fraction, remaining percentage of SFV replication): 76.9%

## CN1C(=O)C(O)N=C(c2ccccc2)c2cc(Cl)ccc21 (stereo not shown) [Temazepam]
CHIKV replicon
  CHIKV replicon % left: 79.5%
SFV-Rluc [1]
  SFV replication % left (surviving fraction, remaining percentage of SFV replication): 91.5%

## CC(C)(C)NCC(O)c1cc(O)cc(O)c1.CC(C)(C)NCC(O)c1cc(O)cc(O)c1.O=S(=O)(O)O (stereo not shown) [Terbutaline hemisulfate salt]
CHIKV replicon
  CHIKV replicon % left: 87.2%
SFV-Rluc [1]
  SFV replication % left (surviving fraction, remaining percentage of SFV replication): 97.5%

## CCCCNc1ccc(C(=O)OCCN(C)C)cc1 [Tetracaine hydrochloride]
CHIKV replicon
  CHIKV replicon % left: 71.1%
SFV-Rluc [1]
  SFV replication % left (surviving fraction, remaining percentage of SFV replication): 102.8%

## Cn1cnc2c1c(=O)[nH]c(=O)n2C [Theobromine]
CHIKV replicon
  CHIKV replicon % left: 70.2%
SFV-Rluc [1]
  SFV replication % left (surviving fraction, remaining percentage of SFV replication): 112.1%

## Cn1c(=O)c2[nH]cnc2n(C)c1=O [Theophylline]
CHIKV replicon
  CHIKV replicon % left: 100.4%
SFV-Rluc [1]
  SFV replication % left (surviving fraction, remaining percentage of SFV replication): 87.8%

## Cc1ncc(C[n+]2csc(CCO)c2C)c(N)n1.O=[N+]([O-])[O-] [Thiamine mononitrate]
CHIKV replicon
  CHIKV replicon % left: 85.0%
SFV-Rluc [1]
  SFV replication % left (surviving fraction, remaining percentage of SFV replication): 95.2%

## Cc1ccc(C(C)C)c(O)c1 [Thymol]
CHIKV replicon
  CHIKV replicon % left: 71.1%
SFV-Rluc [1]
  SFV replication % left (surviving fraction, remaining percentage of SFV replication): 42.0%

## CC(C)(C)NC[C@H](O)COc1nsnc1N1CCOCC1 [Timolol maleate]
CHIKV replicon
  CHIKV replicon % left: 100.6%
SFV-Rluc [1]
  SFV replication % left (surviving fraction, remaining percentage of SFV replication): 129.1%

## CCS(=O)(=O)CCn1c([N+](=O)[O-])cnc1C [Tinidazole]
CHIKV replicon
  CHIKV replicon % left: 100.5%
SFV-Rluc [1]
  SFV replication % left (surviving fraction, remaining percentage of SFV replication): 104.1%

## Cl.c1ccc(CC2=NCCN2)cc1 [Tolazoline, hydrochloride]
CHIKV replicon
  CHIKV replicon % left: 102.1%
SFV-Rluc [1]
  SFV replication % left (surviving fraction, remaining percentage of SFV replication): 76.0%

## CCCCNC(=O)NS(=O)(=O)c1ccc(C)cc1 [Tolbutamide]
CHIKV replicon
  CHIKV replicon % left: 100.9%
SFV-Rluc [1]
  SFV replication % left (surviving fraction, remaining percentage of SFV replication): 80.2%

## Cc1c(Cl)cccc1Nc1ccccc1C(=O)O [Tolfenamic acid]
CHIKV replicon
  CHIKV replicon % left: 108.2%
SFV-Rluc [1]
  SFV replication % left (surviving fraction, remaining percentage of SFV replication): 80.1%

## N[C@@H]1C[C@H]1c1ccccc1.N[C@H]1C[C@@H]1c1ccccc1.O=S(=O)(O)O [Tranylcypromine sulfate]
CHIKV replicon
  CHIKV replicon % left: 94.4%
SFV-Rluc [1]
  SFV replication % left (surviving fraction, remaining percentage of SFV replication): 94.8%

## Nc1nc(N)c2nc(-c3ccccc3)c(N)nc2n1 [Triamterene]
CHIKV replicon
  CHIKV replicon % left: 71.2%
SFV-Rluc [1]
  SFV replication % left (surviving fraction, remaining percentage of SFV replication): 93.0%

## Cc1nnc2n1-c1ccc(Cl)cc1C(c1ccccc1Cl)=NC2 [Triazolam]
CHIKV replicon
  CHIKV replicon % left: 40.1%
SFV-Rluc [1]
  SFV replication % left (surviving fraction, remaining percentage of SFV replication): 76.5%

## CC(CN(C)C)CN1c2ccccc2Sc2ccccc21.CC(CN(C)C)CN1c2ccccc2Sc2ccccc21.O=C(O)C(O)C(O)C(=O)O (stereo not shown) [Trimeprazine tartrate]
CHIKV replicon
  CHIKV replicon % left: 100.5%
SFV-Rluc [1]
  SFV replication % left (surviving fraction, remaining percentage of SFV replication): 120.4%

## O=c1ccc2ccc(O)cc2o1 [Umbelliferone]
CHIKV replicon
  CHIKV replicon % left: 106.5% and 100.7%
SFV-Rluc [1]
  SFV replication % left (surviving fraction, remaining percentage of SFV replication): 93.1% and 78.4%

## COc1cc(C(=O)O)ccc1O [Vanillic acid]
CHIKV replicon
  CHIKV replicon % left: 44.3%
SFV-Rluc [1]
  SFV replication % left (surviving fraction, remaining percentage of SFV replication): 53.4%

## COc1cc(C=O)ccc1O [Vanillin]
CHIKV replicon
  CHIKV replicon % left: 71.7%
SFV-Rluc [1]
  SFV replication % left (surviving fraction, remaining percentage of SFV replication): 47.9%

## COc1c2occc2cc2ccc(=O)oc12 [Xanthotoxin]
CHIKV replicon
  CHIKV replicon % left: 95.4%
SFV-Rluc [1]
  SFV replication % left (surviving fraction, remaining percentage of SFV replication): 86.7%

## Cc1cc(C(C)(C)C)cc(C)c1CC1=NCCN1 [Xylometazoline]
CHIKV replicon
  CHIKV replicon % left: 78.2%
SFV-Rluc [1]
  SFV replication % left (surviving fraction, remaining percentage of SFV replication): 94.2%

## CCCOC(=O)c1cc(O)c(O)c(O)c1 [n-Propyl gallate]
CHIKV replicon
  CHIKV replicon % left: 39.4%
SFV-Rluc [1]
  SFV replication % left (surviving fraction, remaining percentage of SFV replication): 33.6%

## O=C(O)/C=C/c1ccccc1O [o-Coumaric acid]
CHIKV replicon
  CHIKV replicon % left: 98.6%
SFV-Rluc [1]
  SFV replication % left (surviving fraction, remaining percentage of SFV replication): 77.6%

## Nc1ccc(C(=O)O)cc1 [p-Aminobenzoic acid]
CHIKV replicon
  CHIKV replicon % left: 105.4%
SFV-Rluc [1]
  SFV replication % left (surviving fraction, remaining percentage of SFV replication): 56.5%

## CCCCNc1ccc(C(=O)OCCN(C)C)cc1 [p-Butylaminobenzoyldimethylaminoethanol]
CHIKV replicon
  CHIKV replicon % left: 77.1%
SFV-Rluc [1]
  SFV replication % left (surviving fraction, remaining percentage of SFV replication): 45.4%

## CN[C@H](C)[C@@H](O)c1ccc(O)cc1 [p-Hydroxyephedrine]
CHIKV replicon
  CHIKV replicon % left: 100.6%
SFV-Rluc [1]
  SFV replication % left (surviving fraction, remaining percentage of SFV replication): 94.4%

## (-)-Epicatechin gallate
CHIKV replicon
  CHIKV replicon % left: 100.5%
SFV-Rluc [1]
  SFV replication % left (surviving fraction, remaining percentage of SFV replication): 94.8%

## Benzalkonium chloride
CHIKV replicon
  CHIKV replicon % left: -0.5%
SFV-Rluc [1]
  SFV replication % left (surviving fraction, remaining percentage of SFV replication): 0.0294%

## Saccharin sodium
CHIKV replicon
  CHIKV replicon % left: 81.5%
SFV-Rluc [1]
  SFV replication % left (surviving fraction, remaining percentage of SFV replication): 105.0%

## Tannic acid
CHIKV replicon
  CHIKV replicon % left: 82.0%
SFV-Rluc [1]
  SFV replication % left (surviving fraction, remaining percentage of SFV replication): 41.8%

— article PMC3242765, “Inhibitors of Alphavirus Entry and Replication Identified with a Stable Chikungunya Replicon Cell Line and Virus-Based Assays” (PLoS ONE, 2011)
